Source: PMC2360206 (British Journal of Cancer, 2006)
Several values for one entry are separate records, joined by “and”; a condition that tells them apart may be missing. Equal values may be shown once. Read-outs that look alike come from different tables or passages of the source.

How the values were obtained:
[1] = Phase I plasma pharmacokinetics in patients; assay type: in vivo, human; conditions: for Cmax / half-life / AUC(0-inf) / AUC(0-t) / Tmax: human, plasma
Experimental: For PK analysis, blood samples (approximately 8 ml each) were collected in tubes with lithium heparin anticoagulant at the following time points: pre-dose and 0.5, 1, 1.5, 2, 4, 8, 12 (pre-second dose), 13, 14 and 24 h (pre-dose if day 2) after dosing on both days 1 and 7 of the first cycle. The samples were then centrifuged at 3000 r.p.m at 4°C for 10 min, the plasma transferred to 2 ml cryovials and frozen at −70°C until analysis.
Pharmacokinetic (PK) analysis was performed using the trapezoidal method and log-linear regression. The following parameters were determined either by calculation or observation: the observed maximal concentration (Cmax), the time of observed maximal concentration (Tmax), the area under the concentration–time curve calculated by the trapezoidal rule (time 0 to last sample with a quantifiable concentration (AUC (0−tz)) and extrapolated to infinity (AUC(0−∞)), the terminal rate constant, by log-linear regression (λz) and the terminal half-life from λz. The value of AUC(0−∞) was considered unreliable if the terminal area beyond the last quantified sample was greater than 20% of the total AUC(0−∞). Pharmacokinetic (PK) data analysis was carried out using a noncompartmental analysis model with the aid of Kinetica (Innaphase Limited, Amersham, UK).

[2] = tested on: renal perfusion; assay: MAG3 renogram functional renal imaging; assay type: in vivo, human; conditions: one of three patients, 800 mg b.i.d., day 3, reverted to normal by day 14
Experimental: In an attempt to understand further the pathogenesis of these biochemical toxicities, three patients were studied more intensively. Urinary retinol-binding protein (RBP), a marker of renal tubular damage was measured in conjunction with functional renal imaging (MAG3 renograms) to estimate renal blood flow pretreatment on days 3 and 14. […] This was associated with bilateral increases in renal parenchymal retention on day 3 on MAG3 scans, which reverted to normal by day 14 (see Figure 1). […] There were no consistent changes in urinary RBP in any of these patients (Table 3).

[3] = tested on: Cdk8; conditions: background statement, no reference given; cited from earlier work
[4] = set-up: method as in Raynaud et al, 2005; conditions: mouse, single dose 500 mg kg^−1 p.o.; ref Raynaud et al, 2005; cited from earlier work
[5] = tested on: human tumour xenograft; set-up: method as in Raynaud et al, 2005; conditions: 500 mg kg^−1 p.o. b.i.d., mouse; ref Raynaud et al, 2005; cited from earlier work
[6] = po, 100 mg, Day 1, 100 mg b.i.d. p.o. (n=3), mean, course 1
[7] = po, 100 mg, Day 1, 100 mg b.i.d. p.o. (n=3), median, course 1
[8] = po, 100 mg, Day 7, 100 mg b.i.d. p.o. (n=3), mean, course 1
[9] = po, 100 mg, Day 7, 100 mg b.i.d. p.o. (n=3), median, course 1
[10] = po, 200 mg, Day 1, 200 mg b.i.d. p.o. (n=6), mean, course 1
[11] = po, 200 mg, Day 1, 200 mg b.i.d. p.o. (n=6), median, course 1
[12] = po, 200 mg, Day 7, 200 mg b.i.d. p.o. (n=6), mean, course 1
[13] = po, 200 mg, Day 7, 200 mg b.i.d. p.o. (n=6), median, course 1
[14] = po, 800 mg, Day 1, 800 mg b.i.d. p.o. (n=12), mean, course 1
[15] = po, 800 mg, Day 1, 800 mg b.i.d. p.o. (n=12), median, course 1
[16] = po, 800 mg, Day 7, 800 mg b.i.d. p.o. (n=8), mean, course 1
[17] = po, 800 mg, Day 7, 800 mg b.i.d. p.o. (n=8), median, course 1

Compound: CC[C@H](CO)Nc1nc(NCc2ccccc2)c2ncn(C(C)C)c2n1 [Seliciclib]
- mean maximum plasma concentration ([1]; highest dose level (800 mg)): approximately 3 μg ml^−1
- Cmax ([1]; oral, 800 mg, 800 mg dose level, read-out: mean Cmax): 3e+06 ng/mL and 10 µM
- half-life ([1]; oral, similar in all dose groups, read-out: terminal (elimination) half-life): 2 to 5 h
- AUC(0-inf) [1, 6]: 1920 ng·h/mL
- AUC(0-t) [1, 6]: 1870 ng·h/mL
- Cmax ([1]; po, 100 mg, Day 1, 100 mg b.i.d. p.o. (n=3), mean, course 1, read-out: Cmax): 248 ng/mL
- Tmax ([1]; po, 100 mg, Day 1, 100 mg b.i.d. p.o. (n=3), mean, course 1, read-out: Tmax (converted)): 1.87 h
- half-life ([1]; po, 100 mg, Day 1, 100 mg b.i.d. p.o. (n=3), mean, course 1, read-out: t1/2): 4.45 h
- AUC(0-inf) [1, 7]: 1500 ng·h/mL
- AUC(0-t) [1, 7]: 1370 ng·h/mL
- Cmax ([1]; po, 100 mg, Day 1, 100 mg b.i.d. p.o. (n=3), median, course 1, read-out: Cmax): 134 ng/mL
- Tmax ([1]; po, 100 mg, Day 1, 100 mg b.i.d. p.o. (n=3), median, course 1, read-out: Tmax (converted)): 1.02 h
- half-life ([1]; po, 100 mg, Day 1, 100 mg b.i.d. p.o. (n=3), median, course 1, read-out: t1/2): 4.63 h
- AUC(0-inf) [1, 8]: 2890 ng·h/mL
- AUC(0-t) [1, 8]: 2860 ng·h/mL
- Cmax ([1]; po, 100 mg, Day 7, 100 mg b.i.d. p.o. (n=3), mean, course 1, read-out: Cmax): 162 ng/mL
- Tmax ([1]; po, 100 mg, Day 7, 100 mg b.i.d. p.o. (n=3), mean, course 1, read-out: Tmax (converted)): 3.17 h
- half-life ([1]; po, 100 mg, Day 7, 100 mg b.i.d. p.o. (n=3), mean, course 1, read-out: t1/2): 4.47 h
- AUC(0-inf) [1, 9]: 3040 ng·h/mL
- AUC(0-t) [1, 9]: 3030 ng·h/mL
- Cmax ([1]; po, 100 mg, Day 7, 100 mg b.i.d. p.o. (n=3), median, course 1, read-out: Cmax): 152 ng/mL
- Tmax ([1]; po, 100 mg, Day 7, 100 mg b.i.d. p.o. (n=3), median, course 1, read-out: Tmax (converted)): 4 h
- half-life ([1]; po, 100 mg, Day 7, 100 mg b.i.d. p.o. (n=3), median, course 1, read-out: t1/2): 3.9 h
- AUC(0-inf) [1, 10]: 3030 ng·h/mL
- AUC(0-t) [1, 10]: 2770 ng·h/mL
- Cmax ([1]; po, 200 mg, Day 1, 200 mg b.i.d. p.o. (n=6), mean, course 1, read-out: Cmax): 179 ng/mL
- Tmax ([1]; po, 200 mg, Day 1, 200 mg b.i.d. p.o. (n=6), mean, course 1, read-out: Tmax (converted)): 4.65 h
- half-life ([1]; po, 200 mg, Day 1, 200 mg b.i.d. p.o. (n=6), mean, course 1, read-out: t1/2): 2.93 h
- AUC(0-inf) [1, 11]: 3840 ng·h/mL
- AUC(0-t) [1, 11]: 3080 ng·h/mL
- Cmax ([1]; po, 200 mg, Day 1, 200 mg b.i.d. p.o. (n=6), median, course 1, read-out: Cmax): 80 ng/mL
- Tmax ([1]; po, 200 mg, Day 1, 200 mg b.i.d. p.o. (n=6), median, course 1, read-out: Tmax (converted)): 2.78 h
- half-life ([1]; po, 200 mg, Day 1, 200 mg b.i.d. p.o. (n=6), median, course 1, read-out: t1/2): 2.48 h
- AUC(0-inf) [1, 12]: 4250 ng·h/mL
- AUC(0-t) [1, 12]: 2930 ng·h/mL
- Cmax ([1]; po, 200 mg, Day 7, 200 mg b.i.d. p.o. (n=6), mean, course 1, read-out: Cmax): 310 ng/mL
- Tmax ([1]; po, 200 mg, Day 7, 200 mg b.i.d. p.o. (n=6), mean, course 1, read-out: Tmax (converted)): 1.03 h
- half-life ([1]; po, 200 mg, Day 7, 200 mg b.i.d. p.o. (n=6), mean, course 1, read-out: t1/2): 13 h
- AUC(0-inf) [1, 13]: 3480 ng·h/mL
- AUC(0-t) [1, 13]: 3080 ng·h/mL
- Cmax ([1]; po, 200 mg, Day 7, 200 mg b.i.d. p.o. (n=6), median, course 1, read-out: Cmax): 303 ng/mL
- Tmax ([1]; po, 200 mg, Day 7, 200 mg b.i.d. p.o. (n=6), median, course 1, read-out: Tmax (converted)): 1 h
- half-life ([1]; po, 200 mg, Day 7, 200 mg b.i.d. p.o. (n=6), median, course 1, read-out: t1/2): 3.8 h
- AUC(0-inf) [1, 14]: 53000 ng·h/mL
- AUC(0-t) [1, 14]: 52700 ng·h/mL
- Cmax ([1]; po, 800 mg, Day 1, 800 mg b.i.d. p.o. (n=12), mean, course 1, read-out: Cmax): 3200 ng/mL
- Tmax ([1]; po, 800 mg, Day 1, 800 mg b.i.d. p.o. (n=12), mean, course 1, read-out: Tmax (converted)): 2.95 h
- half-life ([1]; po, 800 mg, Day 1, 800 mg b.i.d. p.o. (n=12), mean, course 1, read-out: t1/2): 3.65 h
- AUC(0-inf) [1, 15]: 57500 ng·h/mL
- AUC(0-t) [1, 15]: 57400 ng·h/mL
- Cmax ([1]; po, 800 mg, Day 1, 800 mg b.i.d. p.o. (n=12), median, course 1, read-out: Cmax): 3160 ng/mL
- Tmax ([1]; po, 800 mg, Day 1, 800 mg b.i.d. p.o. (n=12), median, course 1, read-out: Tmax (converted)): 2 h
- half-life ([1]; po, 800 mg, Day 1, 800 mg b.i.d. p.o. (n=12), median, course 1, read-out: t1/2): 3.87 h
- AUC(0-inf) [1, 16]: 26600 ng·h/mL
- AUC(0-t) [1, 16]: 26500 ng·h/mL
- Cmax ([1]; po, 800 mg, Day 7, 800 mg b.i.d. p.o. (n=8), mean, course 1, read-out: Cmax): 2770 ng/mL
- Tmax ([1]; po, 800 mg, Day 7, 800 mg b.i.d. p.o. (n=8), mean, course 1, read-out: Tmax (converted)): 1.65 h
- half-life ([1]; po, 800 mg, Day 7, 800 mg b.i.d. p.o. (n=8), mean, course 1, read-out: t1/2): 3.83 h
- AUC(0-inf) [1, 17]: 21300 ng·h/mL
- AUC(0-t) [1, 17]: 21300 ng·h/mL
- Cmax ([1]; po, 800 mg, Day 7, 800 mg b.i.d. p.o. (n=8), median, course 1, read-out: Cmax): 2640 ng/mL
- Tmax ([1]; po, 800 mg, Day 7, 800 mg b.i.d. p.o. (n=8), median, course 1, read-out: Tmax (converted)): 1.78 h
- half-life ([1]; po, 800 mg, Day 7, 800 mg b.i.d. p.o. (n=8), median, course 1, read-out: t1/2): 3.48 h
- Tmax ([1]; po, all dose levels, oral, read-out: Tmax range (time to peak plasma concentrations)): 1 to 4 h
- Tmax ([1]; po, all dose levels, oral, read-out: mean Tmax): 2.55 h
- plasma clearance ([1]; patients, oral): greater than liver blood flow
- Renal perfusion by MAG3 perfusion indices [2]: reduction in renal perfusion bilaterally
- Inhibition of Cdk8 [3]: only a weak inhibitor
- peak seliciclib concentration [4]: approximately 100 μM
- Effect on growth of a human tumour xenograft [5]: significant growth delay
